Measured values from US6951682B1, “Porous coatings bearing ligand arrays and use thereof” (Syntrix Biochip, Inc., priority 1998, dated 2005).

Columns and labels:
[1] = tested on: PNA-array linker-spacer-CGN1N2TCCG-NH2; assay: Hybridization of fluorescein-labeled DNA-receptor to 16-element PNA-array on patterned porous coating (epifluorescence); assay type: binding; details: 10 μM in 6×SSPE, 10 minutes at room temperature; 10× objective, 15 seconds exposure
Experimental: A patterned porous coating comprising a 4×4 array of 600 μm×600 μm porous squares was prepared as described in Example 19, and coupled with amino-linker molecules using the method described in Example 20. The PNA-array was then synthesized on the surface of the patterned porous coating with each array element occupying one 600 μm×600 μm porous square. Each element of the array comprised one of the 16 possible combinations of the sequence, linker-spacer-CGN1N2TCCG-NH2, where N1 and N2 may independently be A, G, C, or T. The position of each element in the array, as referenced by the N1N2 sequence, is shown in the array schematics of FIGS. 6A and 6B. […]
The fluorescence image of the porous coating was captured at room temperature using a 35 mm camera attached to a Standard Epifluorescence Microscope. The fluorescence image of FAA bound at the predicted array element is readily detected and visualized using an objective magnification of 10× and an exposure time of 15 seconds (see FIG. 6 and corresponding surface plot).
Bound FAA was dissociated from the PNA-array by immersing the slide in 90° C. water, and the hybridization repeated with FTA using conditions as described above for FAA. The fluorescence image of the FTA hybridization was captured with the 10× objective of a Standard Epifluorescence Microscope with attached 35 mm camera. […]

[2] = tested on: surface-bound DNA-ligand 5′-GCCTACGC-3′; assay: Hybridization of fluorescein-labeled DNA-receptor to DNA-ligand synthesized on patterned porous coating (epifluorescence); assay type: binding; details: 10 μM in 6×SSPE, 1 hour at 4° C., wash at 15° C.; 10× objective, 15 seconds exposure
Experimental: Using the DNA synthesizer to automatically deliver reagents, the DNA-ligand with the sequence 5′-[…]-3′ was synthesized via eight phosphoramidite couplings on the exposed hydroxyl groups beginning with the 3′ end. Following synthesis, the reactor system was separated from the DNA synthesizer, and the phosphate and exocyclic amine protecting groups removed by manually applying 0.05 M potassium carbonate in methanol to the reactor cavity for 2 hours at room temperature. […]
The 6×SSPE solution is a high-salt buffer with a pH of 7.4 comprising 1M NaCl, 66 mM NaH2PO4/Na2HPO4, 6 mM EDTA, and 0.05° Triton X-100-™ The slide was subsequently washed in 6×SSPE at a temperature of 15° C., and mounted on a modified microscope stage attached to a Standard Epifluorescence Microscope The stage contained an aqueous gel within its interior that was chilled to approximately 4° C. prior to image acquisition. The fluorescence image of FTA hybridized to the porous coating was captured using a 35 mm camera attached to the microscope. […]
Following hybridization, the slide was washed in 6×SSPE at a temperature of 15° C. and mounted on the modified stage as described above. The fluorescence image of the FAA hybridization was captured with the 10× objective of a Standard Epifluorescence Microscope with attached 35 mm camera. […]

[3] = biological target: T1, angiotensin converting enzyme (ACE) (Homo sapiens, UniProt P12821); details: as reported by Patchett et al.; read-out: IC50 (binding affinity for ACE); cited from earlier work
T1 sequence (P12821 30-1306, species assumed): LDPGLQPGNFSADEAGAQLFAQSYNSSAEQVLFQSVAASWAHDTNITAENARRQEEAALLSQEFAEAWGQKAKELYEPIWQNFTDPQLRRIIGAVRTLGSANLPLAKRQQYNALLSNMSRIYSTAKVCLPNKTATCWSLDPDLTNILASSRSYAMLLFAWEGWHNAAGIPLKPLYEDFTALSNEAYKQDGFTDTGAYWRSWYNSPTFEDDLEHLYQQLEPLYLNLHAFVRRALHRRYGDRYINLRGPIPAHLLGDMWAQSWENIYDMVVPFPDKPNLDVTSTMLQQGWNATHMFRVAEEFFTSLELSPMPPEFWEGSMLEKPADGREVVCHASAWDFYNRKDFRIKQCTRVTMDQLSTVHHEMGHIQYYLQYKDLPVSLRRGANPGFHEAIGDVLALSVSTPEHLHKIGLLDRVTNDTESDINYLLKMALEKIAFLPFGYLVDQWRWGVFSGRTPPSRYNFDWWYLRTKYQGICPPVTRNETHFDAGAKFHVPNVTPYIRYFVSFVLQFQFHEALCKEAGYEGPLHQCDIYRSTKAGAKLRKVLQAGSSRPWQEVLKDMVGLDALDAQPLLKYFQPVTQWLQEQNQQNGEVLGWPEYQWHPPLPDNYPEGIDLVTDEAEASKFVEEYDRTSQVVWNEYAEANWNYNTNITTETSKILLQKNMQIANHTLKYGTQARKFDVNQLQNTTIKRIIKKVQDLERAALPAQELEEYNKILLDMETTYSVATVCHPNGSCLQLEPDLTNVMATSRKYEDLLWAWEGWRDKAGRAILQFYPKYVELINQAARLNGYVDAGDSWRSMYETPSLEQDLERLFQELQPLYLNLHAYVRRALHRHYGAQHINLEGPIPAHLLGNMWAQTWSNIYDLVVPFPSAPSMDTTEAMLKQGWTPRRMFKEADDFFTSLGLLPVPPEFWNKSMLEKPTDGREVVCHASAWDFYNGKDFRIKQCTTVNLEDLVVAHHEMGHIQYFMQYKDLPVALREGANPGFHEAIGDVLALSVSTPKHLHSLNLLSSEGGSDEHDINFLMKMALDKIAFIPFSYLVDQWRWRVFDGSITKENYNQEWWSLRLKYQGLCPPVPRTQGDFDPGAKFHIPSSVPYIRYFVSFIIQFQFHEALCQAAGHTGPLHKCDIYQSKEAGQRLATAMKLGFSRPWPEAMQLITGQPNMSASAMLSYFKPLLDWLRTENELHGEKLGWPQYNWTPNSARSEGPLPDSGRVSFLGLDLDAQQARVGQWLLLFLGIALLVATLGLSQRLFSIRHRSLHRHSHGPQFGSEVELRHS

[4] = biological target: T1, angiotensin converting enzyme (ACE); assay: ACE inhibitory activity, functional assay with substrate FAPGG (absorbance at 328 nm); assay type: biochemical; details: 10 nM ACE, 50 μM FAPGG
Experimental: Each assay mixture contained 10 nM ACE, 50 μM FAPGG, 50 mM Tris (pH 8.3), 300 mM NaCl, and 20-40 μl of each of the above analogue solutions in a total reaction volume of 50 μl. The above mixture without analogue served as the negative control for inhibitory activity. […] Each reaction was initiated by adding 5 μl of 500 μM FAPGG to 45 μl of the remaining assay components in a 100 μl cuvette. The temporal progress of each reaction was monitored by measuring the absorbance at 328 nm every 15 seconds.
The percent ACE inhibition is expressed as the percent decrease in initial velocity relative to the initial velocity of the negative control. […] Compositions are referenced by R1 and R2 groups as defined in Table XI.

Row | Compound | specificity of hybridization to PNA-array [1] | fluorescence image of hybridized DNA-receptor [2] | IC50 [3] [nM] | percent ACE inhibition (percent decrease in initial velocity relative to the negative control) ([4]; analogue cleaved from one array element of a 1 μm thick porous coat, pH 8.3) [%] | initial velocity ([4]; positive control, 250 nM lisinopril)
1 | 5′-GCGAAGGC-fluorescein [FAA] | hybridizes specifically to its complementary PNA sequence with little or no signal from other array elements | equivalent to the images with no receptor |  |  | 
2 | CC(NC(Cc1ccccc1)C(=O)O)C(=O)N1CCCC1C(=O)O (stereo not shown) [R1a+R2a] |  |  | 39 | 35 | 
3 | 5′-GCGTAGGC-fluorescein [FTA] | hybridizes specifically to its complementary PNA sequence with little or no signal from other array elements | readily visible |  |  | 
4 | NCCCC[C@H](N[C@@H](CCc1ccccc1)C(=O)O)C(=O)N1CCC[C@H]1C(=O)O [lisinopril] |  |  |  |  | zero
